Experimental data: patent US20080119549A1, “METABOLICALLY-[…] FATTY ACID AMIDE HYDROLASE” (N.V. Organon, priority 2006, published 2008)

Columns and labels:
[1] = biological target: T1, FAAH (Homo sapiens, UniProt O00519); assay: FAAH LC-MS/MS screening assay (anandamide hydrolysis by human liver microsomes); settings: inhibitor at 30 nM, 60 minute incubation at 37° C.
T1 sequence (O00519 1-579): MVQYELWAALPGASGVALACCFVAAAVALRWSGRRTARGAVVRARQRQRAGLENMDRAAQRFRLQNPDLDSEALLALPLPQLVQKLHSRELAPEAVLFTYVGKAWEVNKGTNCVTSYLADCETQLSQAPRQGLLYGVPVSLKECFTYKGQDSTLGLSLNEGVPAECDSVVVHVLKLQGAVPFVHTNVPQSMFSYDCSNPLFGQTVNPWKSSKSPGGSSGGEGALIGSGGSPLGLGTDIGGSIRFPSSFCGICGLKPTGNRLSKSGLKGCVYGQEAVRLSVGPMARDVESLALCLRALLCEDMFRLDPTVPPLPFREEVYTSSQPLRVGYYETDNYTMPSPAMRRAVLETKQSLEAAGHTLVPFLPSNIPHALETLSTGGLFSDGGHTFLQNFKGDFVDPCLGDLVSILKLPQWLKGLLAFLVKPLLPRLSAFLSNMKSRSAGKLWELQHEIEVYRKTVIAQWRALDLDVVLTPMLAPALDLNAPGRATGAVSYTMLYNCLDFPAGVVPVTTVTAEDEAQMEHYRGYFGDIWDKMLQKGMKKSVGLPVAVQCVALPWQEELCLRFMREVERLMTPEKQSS
Description: The following are combined in a 5-mL glass tube: anandamide (5 μL of 200 ug/mL), 960 μL of 50 mM ammonium phosphate buffer (pH 7.4) containing 0.125% BSA (w/v), 10 μL of DMSO without (control) or with a FAAH inhibitor (1 μg/mL), and 25 μL of human liver microsomes (31.3/g). Prior to incubation, a 100 μL aliquot is transferred to a 96-well plate containing 0.25 mL of acetonitrile and D4 (deuterated) anandamide (0.2 #M). Each 5-mL tube is capped and placed in a shaking water bath maintained at 37° C. for 60 minutes. After a 60 minute incubation, a second 100 μL aliquot is transferred to a 96-well plate as performed earlier. The 96-well plate is then capped, vortex mixed, and placed on an HPLC for liquid chromatography/tandem mass spectrometry (LC/MS/MS) analyses. HPLC is carried out on a Waters 2790 Alliance system (Milford, Mass.). […] The samples are analyzed using an electrospray probe in the positive ionization mode with the cone voltage set at 40 V and capillary at 3.2 kV. […] An area ratio response (anandamide area response/D4 anandamide area response) was determined for each sample. Percent anandamide hydrolysis of each sample is determined by the following equation, [(T=0 response)−(T=60 response)/T=0 response]*100. The percent hydrolysis normalized to control is determined by dividing the % hydrolysis of test sample by the % hydrolysis of the control sample.

[2] = Metabolic stability in human liver S9 fractions (half-life in vitro); type: in vitro ADME; settings: pH 7.2, Human S9 ½ life in-vitro, read-out: half-life in human S9 cells
Description: Generally, a FAAH inhibitor was incubated in human liver S9 fractions. Incubations were conducted at 37° C. in a potassium phosphate buffer (pH 7.2). NADPH and a regenerating system consisting of NADP, glucose 6-phosphate dehydrogenase were provided to the incubates. Incubations were terminated by the addition of methanol and freezing at −80° C. See, e.g., Singh, R. et al. Rapid Commun. Mass Spectrom., 10: 1019-26 (1996).

SMILES | anandamide hydrolysis compared to the control [1] [%] | half-life [2] [min]
CC1(C)CCC(NC(=O)Oc2cccc(-c3cccc(C(N)=O)c3)c2)CC1 [Example 1, (4,4-dimethylcyclohexyl)carbamic acid 3′carbamoylbiphenyl-3-yl ester] | < 50 | –
NC(=O)c1cccc(-c2cccc(OC(=O)NC3CCCCC3)c2)c1 [KDS-4103] | 30 | ~30
